Here are results for 8 compounds from US7771727B2, “Conjugates of therapeutic or cytotoxic agents and biologically active peptides” (The Administrators of the Tulane Educational Fund, priority 2002, dated 2010).

Entries after “also recorded” stand apart in the source; their conditions may differ. Read-outs that look alike come from different tables or passages of the source. Numbered stars: 1 amine (or outer) side, 2 acyl side, 3 side chain; on linkers, the order of the positions; unused ones are H or OH. Bridge positions count the residues as written; N and C are the ends. Square brackets hold non-standard residues; d marks the D form. Peptide text beside a SMILES is read from it. * marks the point of attachment. Camptothecin(20S-OCO) = CC[C@@]1(OC(=O)*)C(=O)OCc2c1cc1n(c2=O)Cc2cc3ccccc3nc2-1; NGly(2-(methylamino)ethyl) = CN(CCN(CC(=O)[*:2])[*:1])[*:3]; X1 = COc1ccc(/C=C\c2cc(OC)c(OC)c(OC)c2)cc1OC(=O)*; Gly(N-2-aminoethyl) = NCCNCC(=O)O; X2 = CN(C)CCN(CC(=O)[*:2])[*:1]; Gly(N(CH2)3NH2) = NCCCNCC(=O)O; Gly(N-CH2CH2OH) = O=C(O)CNCCO; Nle = CCCC[C@H](N)C(=O)O

The conditions of data set [1]: camptothecin: tertiary hydroxyl, ring position 20; combretastatin: phenolic hydroxyl; cited from earlier work.
For data set [2], the system named is human neuroblastoma IMR32 cells (somatostatin receptor overexpression). Kind of data set: MTT cytotoxicity assay, IMR-32 cells. Particulars: for cytotoxic activity: 3 days. The protocol:
The cytotoxic activities of these conjugates were measured using a standard MTT assay kit (Promega Corporation, Madison, Wis.). Each compound was incubated for 3 days with human neuroblastoma IMR32 cells (somatostatin receptor overexpression) at different concentrations in quadruplate and IC50's were generated from the dose-response curves (FIG. 2).
(Formazan colour is commonly taken as a measure of viable cells.)

Data set [3] deals with tumor. Kind of data set: Preliminary tumor bearing animal studies. Particulars: repeated intraperitoneal administration. It is filed as in vivo.
Data set [4] concerns GH release from monolayer cultures of rat pituitary cells. Format: cell-based. The following applies: read-out: Growth Hormone Inhibition IC50.
A short description of data set [5]: in vitro. The procedure: (§1) Each peptide conjugate was subjected to phosphate buffer and rat serum stability studies. The analogues were incubated in either 0.1 M phosphate buffer or fresh rat serum at 37° C. and aliquots were taken at different time points and examined by HPLC.
Data set [6] in a line: physchem. Particulars: for Half Life Phosphate Buffer / half-life: buffer. The procedure: as §1
Data set [7] has as its system NCI-H69 small cell lung carcinomas (expression of SSTR2). Particulars: nude mice; doses far below the maximum tolerated equivalent doses of camptothecin alone.
Setting [8] is: Homo sapiens, IMR-32, 72 h, read-out: Cytotoxicity IC50, IMR-32 Cells.
Setting [9] is: phosphate buffer, length of the experiment 50 h.

With `CC[C@@]1(O)C(=O)OCc2c1cc1n(c2=O)Cc2cc3ccccc3nc2-1` [Camptothecin, reference compound], the “pKa of hydroxyl group” value in data set [1] was “approximately 18”. Further, the half-inhibitory concentration (IC50) in data set [2] (setting [8]) was determined as 2.21 ± 0.44 nM.

On to `COc1ccc(C[C@@H](O)c2cc(OC)c(OC)c(OC)c2)cc1O` [Combretastatin, reference compound], for which the “pKa of hydroxyl group” value in data set [1] was “approximately 10.3”. Also, the IC50 in data set [2] (setting [8]) was determined as 4.36 nM.

For `CCCC[C@H](NC(=O)[C@@H](CO)NC(=O)CN(CCN)C(=O)O[C@]1(CC)C(=O)OCc2c1cc1n(c2=O)Cc2cc3ccccc3nc2-1)C(=O)N[C@H](Cc1ccc(O)cc1)C(=O)N[C@H](CO)C(=O)N[C@H]1CSSC[C@@H](C(=O)N[C@H](C(N)=O)[C@@H](C)O)NC(=O)[C@H]([C@@H](C)O)NC(=O)[C@H](CCCCN)NC(=O)[C@@H](Cc2c[nH]c3ccccc23)NC(=O)[C@H](Cc2ccccc2)NC1=O` [Compound 1, camptothecin-carbonyl-N-(2-aminoethyl)-glycine-D-Ser-Nle-D-Tyr-D-Ser-cyclo[Cys-Phe-D-Trp-Lys-Thr-Cys]-Thr-amide] ({Camptothecin(20S-OCO)}-[Gly(N-2-aminoethyl)][dS][Nle][dY][dS]CF[dW]KTCT-NH2; disulfide 6-11), the “cytotoxic effect in the tumor” value in data set [3] is given as “equally effective”. The IC50 in data set [4] (rat pituitary cells) was found to be 0.32 ± 0.02 nM. Further, in data set [2] (IMR32 cells), the “cytotoxic potency relative to compound 2” value is “seven times less potent than compound 2” and the “cytotoxic activity” value was “next most potent; also recorded: high cytotoxicity”. For the same compound, the “stability to cell media incubation conditions” value in data set [2] (cell media) is listed as “very stable”. The concentration for half-maximal inhibition (IC50) in data set [2] (human) is 374 ± 18 nM. Further, in data set [5] (rat, serum), the half-life is 106 h and the “rat serum stability” value is on record as “most stable”. Besides, the “buffer stability” value in data set [6] (setting [9]) is “complete buffer stability”.

As for `CCCC[C@H](NC(=O)[C@@H](CO)NC(=O)CN(CCNC)C(=O)O[C@]1(CC)C(=O)OCc2c1cc1n(c2=O)Cc2cc3ccccc3nc2-1)C(=O)N[C@H](Cc1ccc(O)cc1)C(=O)N[C@H](CO)C(=O)N[C@H]1CSSC[C@@H](C(=O)N[C@H](C(N)=O)[C@@H](C)O)NC(=O)[C@H]([C@@H](C)O)NC(=O)[C@H](CCCCN)NC(=O)[C@@H](Cc2c[nH]c3ccccc23)NC(=O)[C@H](Cc2ccccc2)NC1=O` [Compound 2, camptothecin-carbonyl-N-(N-methyl-2-aminoethyl)-glycine-D-Ser-Nle-D-Tyr-D-Ser-cyclo[Cys-Phe-D-Trp-Lys-Thr-Cys]-Thr-amide] ({Camptothecin(20S-OCO)}-[NGly(2-(methylamino)ethyl)][dS][Nle][dY][dS]CF[dW]KTCT-NH2; disulfide 6-11), the “cytotoxic effect in the tumor” value in data set [3] is given as “equally effective”. For the same compound, the 50% inhibitory concentration (IC50) in data set [4] was found to be 0.27 ± 0.02 nM. For the same compound, the “growth of transplanted NCI-H69 small cell lung carcinomas” value in data set [7] is reported as “significantly stabilize the growth”. Besides, the “stability to cell media incubation conditions” value in data set [2] is listed as “very stable”. Also, in data set [2] (human), the 50% inhibitory concentration (IC50) came to 54.2 ± 6 nM. Also, in data set [5] (rat, serum), the “Half-Life Rat Serum” value was 18 h and the half-life is 18 h. In addition, in data set [6], the “Half Life Phosphate Buffer” value was 123 h and the half-life is ~120 h.

Take `CCCC[C@H](NC(=O)[C@@H](CO)NC(=O)CN(CCN(C)C)C(=O)O[C@]1(CC)C(=O)OCc2c1cc1n(c2=O)Cc2cc3ccccc3nc2-1)C(=O)N[C@H](Cc1ccc(O)cc1)C(=O)N[C@H](CO)C(=O)N[C@H]1CSSC[C@@H](C(=O)N[C@H](C(N)=O)[C@@H](C)O)NC(=O)[C@H]([C@@H](C)O)NC(=O)[C@H](CCCCN)NC(=O)[C@@H](Cc2c[nH]c3ccccc23)NC(=O)[C@H](Cc2ccccc2)NC1=O` [Compound 3] ({Camptothecin(20S-OCO)}-[X2][dS][Nle][dY][dS]CF[dW]KTCT-NH2; disulfide 6-11): in data set [4], the half-inhibitory concentration (IC50) was found to be 0.3 ± 0.04 nM. For the same compound, the IC50 in data set [2] (human) was found to be 571 ± 48 nM. The “rat serum stability” value in data set [5] was “most stable”. For the same compound, the half-life in data set [5] (rat, serum) was 59 h. Also, in data set [6], the “buffer stability” value is reported as “complete buffer stability” and the “Half Life Phosphate Buffer” value is “Stable”.

Turning to `CCCC[C@H](NC(=O)[C@@H](CO)NC(=O)CN(CCCN)C(=O)O[C@]1(CC)C(=O)OCc2c1cc1n(c2=O)Cc2cc3ccccc3nc2-1)C(=O)N[C@H](Cc1ccc(O)cc1)C(=O)N[C@H](CO)C(=O)N[C@H]1CSSC[C@@H](C(=O)N[C@H](C(N)=O)[C@@H](C)O)NC(=O)[C@H]([C@@H](C)O)NC(=O)[C@H](CCCCN)NC(=O)[C@@H](Cc2c[nH]c3ccccc23)NC(=O)[C@H](Cc2ccccc2)NC1=O` [Compound 4] ({Camptothecin(20S-OCO)}-[Gly(N(CH2)3NH2)][dS][Nle][dY][dS]CF[dW]KTCT-NH2; disulfide 6-11), the half-inhibitory concentration (IC50) in data set [4] (rat pituitary cells) is 0.26 ± 0.03 nM. For the same compound, the half-inhibitory concentration (IC50) in data set [2] (human) is > 1000 nM. In addition, in data set [5] (rat, serum), the half-life is 72 h and the “rat serum stability” value is reported as “most stable”. The “buffer stability” value in data set [6] (setting [9]) was “complete buffer stability”.

`CCCC[C@H](NC(=O)[C@@H](CO)NC(=O)CN(CCO)C(=O)O[C@]1(CC)C(=O)OCc2c1cc1n(c2=O)Cc2cc3ccccc3nc2-1)C(=O)N[C@H](Cc1ccc(O)cc1)C(=O)N[C@H](CO)C(=O)N[C@H]1CSSC[C@@H](C(=O)N[C@H](C(N)=O)[C@@H](C)O)NC(=O)[C@H]([C@@H](C)O)NC(=O)[C@H](CCCCN)NC(=O)[C@@H](Cc2c[nH]c3ccccc23)NC(=O)[C@H](Cc2ccccc2)NC1=O` [Compound 5] ({Camptothecin(20S-OCO)}-[Gly(N-CH2CH2OH)][dS][Nle][dY][dS]CF[dW]KTCT-NH2; disulfide 6-11): the results for the IC50 in data set [4] and in data set [2] (human) were 0.49 ± 0.1 nM and > 1000 nM, respectively.

Regarding `CCCC[C@H](NC(=O)[C@@H](CO)NC(=O)CN(CCN)C(=O)Oc1cc(/C=C\c2cc(OC)c(OC)c(OC)c2)ccc1OC)C(=O)N[C@H](Cc1ccc(O)cc1)C(=O)N[C@H](CO)C(=O)N[C@H]1CSSC[C@@H](C(=O)N[C@H](C(N)=O)[C@@H](C)O)NC(=O)[C@H]([C@@H](C)O)NC(=O)[C@H](CCCCN)NC(=O)[C@@H](Cc2c[nH]c3ccccc23)NC(=O)[C@H](Cc2ccccc2)NC1=O` [Compound 6, combretastatin-carbonyl-N-(2-aminoethyl)-glycine-D-Ser-Me-D-Tyr-D-Ser-cyclo[Cys-Phe-D-Trp-Lys-Thr-Cys]-Thr-amide] (X1-[Gly(N-2-aminoethyl)][dS][Nle][dY][dS]CF[dW]KTCT-NH2; disulfide 6-11), the IC50 in data set [4] (rat pituitary cells) was 0.31 ± 0.1 nM; in data set [2] (read-out: Cytotoxicity IC50, IMR-32 Cells, 3 days incubation, MTT assay), 2.79 ± 0.33 nM. Moreover, the “cytotoxic activity” value in data set [2] (IMR32 cells) is listed as “most cytotoxic”. For the same compound, in data set [5] (fresh rat serum, 37° C.), the “Half-Life Rat Serum” value came to 4 h. Besides, the half-life was 4 h in data set [5] (rat, serum) and 30 h in data set [6]. Moreover, in data set [6] (from stability data in buffer, after 3 days), the “conjugate that is free cytotoxin after 3 days” value is recorded as 50%.

For orientation: IC50 means the concentration that gives 50% inhibition. The half-life is the time needed for the level to fall by half in the phase considered. A high value points to slow decline.
